# Patent US12043632B2, “6-heteroaryloxy benzimidazoles and azabenzimidazoles as JAK2 inhibitors” (Ajax Therapeutics, Inc., priority 2020, dated 2024)
# Molecular target: T1, JAK2 (JH1domain-catalytic, Y1007F,Y1008F) kinase (Homo sapiens, UniProt O60674, Y1007F/Y1008F)
# T1 construct: JAK2 (JH1domain-catalytic, Y1007F,Y1008F) kinase was expressed as N-terminal fusion; made in house; host or cells: transiently transfected HEK293 cells
# Assay: JAK2 JH1 Domain Binding Assay
# Details: qPCR readout
# T1 sequence (O60674 849-1124 Y1007F/Y1008F limits assumed): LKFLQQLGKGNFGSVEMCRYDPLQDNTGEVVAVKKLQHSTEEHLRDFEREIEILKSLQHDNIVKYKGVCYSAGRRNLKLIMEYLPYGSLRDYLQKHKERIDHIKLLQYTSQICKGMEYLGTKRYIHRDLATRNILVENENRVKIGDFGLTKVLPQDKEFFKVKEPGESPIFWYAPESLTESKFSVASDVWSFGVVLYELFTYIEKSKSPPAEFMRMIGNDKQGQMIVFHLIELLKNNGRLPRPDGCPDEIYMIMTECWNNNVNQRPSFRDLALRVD
row,Kd,Structure (SMILES)
1,< 0.01 µM,"COC1CN(Cc2cc(Nc3nc4ncc(Oc5cnn6ccncc56)c(Cl)c4n3C)cc(C(F)(F)F)c2)C1 [Example I-196, 7-chloro-N-(3-((3-methoxyazetidin-1-yl)methyl)-5-(trifluoromethyl)phenyl)-1-methyl-6-(pyrazolo[1,5-a]pyrazin-3-yloxy)-1H-imidazo[4,5-b]pyridin-2-amine]"
2,< 0.01 µM,"Cn1c(Nc2cc(CN3CCC(F)(F)C3)cc(C(F)(F)F)c2)nc2ncc(Oc3cnn4ccncc34)c(Cl)c21 [Example I-197, 7-chloro-N-(3-((3,3-difluoropyrrolidin-1-yl)methyl)-5-(trifluoromethyl)phenyl)-1-methyl-6-(pyrazolo[1,5-a]pyrazin-3-yloxy)-1H-imidazo[4,5-b]pyridin-2-amine]"
3,< 0.01 µM,"COC1CCN(Cc2cc(Nc3nc4ncc(Oc5cnn6ccncc56)c(Cl)c4n3C)cc(C(F)(F)F)c2)CC1 [Example I-198, 7-chloro-N-(3-((4-methoxypiperidin-1-yl)methyl)-5-(trifluoromethyl)phenyl)-1-methyl-6-(pyrazolo[1,5-a]pyrazin-3-yloxy)-1H-imidazo[4,5-b]pyridin-2-amine]"
4,< 0.01 µM,"CNc1nccn2ncc(Oc3cnc4nc(Nc5cc(C6CC6)nn(C)c5=O)n(C)c4c3Cl)c12 [Example I-199, 4-((7-chloro-1-methyl-6-((4-(methylamino)pyrazolo[1,5-a]pyrazin-3-yl)oxy)-1H-imidazo[4,5-b]pyridin-2-yl)amino)-6-cyclopropyl-2-methylpyridazin-3(2H)-one]"
5,0.01 to 0.05 µM,"Cn1c(C#N)c(C(F)(F)F)cc(Nc2nc3ncc(Oc4cnn5ccncc45)c(Cl)c3n2C)c1=O [Example I-200, 5-((7-chloro-1-methyl-6-(pyrazolo[1,5-a]pyrazin-3-yloxy)-1H-imidazo[4,5-b]pyridin-2-yl)amino)-1-methyl-6-oxo-3-(trifluoromethyl)-1,6-dihydropyridine-2-carbonitrile]"
6,< 0.01 µM,"CNc1nccn2ncc(Oc3cnc4nc(Nc5cc(C(F)(F)C(F)(F)F)cn(C)c5=O)n(C)c4c3Cl)c12 [Example I-201, 3-((7-chloro-1-methyl-6-((4-(methylamino)pyrazolo[1,5-a]pyrazin-3-yl)oxy)-1H-imidazo[4,5-b]pyridin-2-yl)amino)-1-methyl-5-(perfluoroethyl)pyridin-2(1H)-one]"
7,< 0.01 µM,"CNc1nccn2ncc(Oc3cnc4nc(Nc5cc(C(F)(F)F)cn(C(C)C)c5=O)n(C)c4c3Cl)c12 [Example I-202, 3-((7-chloro-1-methyl-6-((4-(methylamino)pyrazolo[1,5-a]pyrazin-3-yl)oxy)-1H-imidazo[4,5-b]pyridin-2-yl)amino)-1-isopropyl-5-(trifluoromethyl)pyridin-2(1H)-one]"
8,0.01 to 0.05 µM,"Cn1c(Nc2cnc(N3CCC3)c(C(F)(F)F)c2)nc2ncc(Oc3cnn4ccncc34)c(Cl)c21 [Example I-203, N-(6-(azetidin-1-yl)-5-(trifluoromethyl)pyridin-3-yl)-7-chloro-1-methyl-6-(pyrazolo[1,5-a]pyrazin-3-yloxy)-1H-imidazo[4,5-b]pyridin-2-amine]"
9,< 0.01 µM,"Cn1c(Nc2cc(CN3CC[C@@H](O)C3)cc(C(F)(F)F)c2)nc2ncc(Oc3cnn4ccncc34)c(Cl)c21 [Example I-204, (R)-1-(3-((7-chloro-1-methyl-6-(pyrazolo[1,5-a]pyrazin-3-yloxy)-1H-imidazo[4,5-b]pyridin-2-yl)amino)-5-(trifluoromethyl)benzyl)pyrrolidin-3-ol]"
10,< 0.01 µM,"Cn1c(Nc2cc(CN3CC[C@H](O)C3)cc(C(F)(F)F)c2)nc2ncc(Oc3cnn4ccncc34)c(Cl)c21 [Example I-205, (S)-1-(3-((7-chloro-1-methyl-6-(pyrazolo[1,5-a]pyrazin-3-yloxy)-1H-imidazo[4,5-b]pyridin-2-yl)amino)-5-(trifluoromethyl)benzyl)pyrrolidin-3-ol]"
11,< 0.01 µM,"CN1CCC(Oc2cc(Nc3nc4ncc(Oc5cnn6ccncc56)c(Cl)c4n3C)cc(C(F)(F)F)c2)CC1 [Example I-206, 7-chloro-1-methyl-N-(3-((1-methylpiperidin-4-yl)oxy)-5-(trifluoromethyl)phenyl)-6-(pyrazolo[1,5-a]pyrazin-3-yloxy)-1H-imidazo[4,5-b]pyridin-2-amine]"
12,< 0.01 µM,"Cn1c(Nc2ccc(CN3CCN(CCO)CC3)c(C(F)(F)F)c2)nc2ncc(Oc3cnn4ccncc34)c(Cl)c21 [Example I-207, 2-(4-(4-((7-chloro-1-methyl-6-(pyrazolo[1,5-a]pyrazin-3-yloxy)-1H-imidazo[4,5-b]pyridin-2-yl)amino)-2-(trifluoromethyl)benzyl)piperazin-1-yl)ethan-1-ol]"
13,0.05 to 1 µM,"Cn1c(Nc2ccc(CN3CCN(CC(F)F)CC3)c(C(F)(F)F)c2)nc2ncc(Oc3cnn4ccncc34)c(Cl)c21 [Example I-208, 7-chloro-N-(4-((4-(2,2-difluoroethyl)piperazin-1-yl)methyl)-3-(trifluoromethyl)phenyl)-1-methyl-6-(pyrazolo[1,5-a]pyrazin-3-yloxy)-1H-imidazo[4,5-b]pyridin-2-amine]"
14,0.01 to 0.05 µM,"CN1CC[C@@H](Oc2cc(Nc3nc4ncc(Oc5cnn6ccncc56)c(Cl)c4n3C)cc(C(F)(F)F)c2)C1 [Example I-209, (R)-7-chloro-1-methyl-N-(3-((1-methylpyrrolidin-3-yl)oxy)-5-(trifluoromethyl)phenyl)-6-(pyrazolo[1,5-a]pyrazin-3-yloxy)-1H-imidazo[4,5-b]pyridin-2-amine]"
15,< 0.01 µM,"CN1CC[C@H](Oc2cc(Nc3nc4ncc(Oc5cnn6ccncc56)c(Cl)c4n3C)cc(C(F)(F)F)c2)C1 [Example I-210, (S)-7-chloro-1-methyl-N-(3-((1-methylpyrrolidin-3-yl)oxy)-5-(trifluoromethyl)phenyl)-6-(pyrazolo[1,5-a]pyrazin-3-yloxy)-1H-imidazo[4,5-b]pyridin-2-amine]"
16,< 0.01 µM,"COc1c(Oc2cnn3ccnc(OC)c23)cnc2nc(Nc3cc(C4CC4)cn(C)c3=O)n(C)c12 [Example I-211, 5-cyclopropyl-3-((7-methoxy-6-((4-methoxypyrazolo[1,5-a]pyrazin-3-yl)oxy)-1-methyl-1H-imidazo[4,5-b]pyridin-2-yl)amino)-1-methylpyridin-2(1H)-one]"
17,< 0.01 µM,"Cn1cc(C(F)(F)F)cc(Nc2nc3ncc(Oc4cnn5ccccc45)c(C#N)c3n2C)c1=O [Example I-212, 1-methyl-2-((1-methyl-2-oxo-5-(trifluoromethyl)-1,2-dihydropyridin-3-yl)amino)-6-(pyrazolo[1,5-a]pyridin-3-yloxy)-1H-imidazo[4,5-b]pyridine-7-carbonitrile]"
18,0.01 to 0.05 µM,"Cn1c(Nc2cc(C(F)(F)F)cn([C@H]3C[C@@H](O)C3)c2=O)nc2ncc(Oc3cnn4ccc(F)cc34)c(Cl)c21 [Example I-213, cis-3-((7-chloro-6-((5-fluoropyrazolo[1,5-a]pyridin-3-yl)oxy)-1-methyl-1H-imidazo[4,5-b]pyridin-2-yl)amino)-1-(3-hydroxycyclobutyl)-5-(trifluoromethyl)pyridin-2(1H)-one]"
19,< 0.01 µM,"CNc1nccn2ncc(Oc3cnc4nc(Nc5cc(C(F)(F)F)cn([C@H]6C[C@@H](O)C6)c5=O)n(C)c4c3Cl)c12 [Example I-214, 3-((7-chloro-1-methyl-6-((4-(methylamino)pyrazolo[1,5-a]pyrazin-3-yl)oxy)-1H-imidazo[4,5-b]pyridin-2-yl)amino)-1-((1s,3s)-3-hydroxycyclobutyl)-5-(trifluoromethyl)pyridin-2(1H)-one]"
20,< 0.01 µM,"CN(C)Cc1cc(F)c(Nc2nc3ncc(Oc4cnn5ccncc45)c(Cl)c3n2C)cc1C(F)(F)F [Example I-215, 7-chloro-N-(4-((dimethylamino)methyl)-2-fluoro-5-(trifluoromethyl)phenyl)-1-methyl-6-(pyrazolo[1,5-a]pyrazin-3-yloxy)-1H-imidazo[4,5-b]pyridin-2-amine]"
21,0.01 to 0.05 µM,"CNc1nccn2ncc(Oc3cnc4nc(Nc5ccc(CN6CC(C#N)C6)c(C(F)(F)F)c5)n(C)c4c3Cl)c12 [Example I-216, 1-(4-((7-chloro-1-methyl-6-((4-(methylamino)pyrazolo[1,5-a]pyrazin-3-yl)oxy)-1H-imidazo[4,5-b]pyridin-2-yl)amino)-2-(trifluoromethyl)benzyl)azetidine-3-carbonitrile]"
22,< 0.01 µM,"[2H]C([2H])([2H])n1cc(C(F)(F)F)cc(Nc2nc3ncc(Oc4cnn5ccnc(NC)c45)c(Cl)c3n2C)c1=O [Example I-217, 3-((7-chloro-1-methyl-6-((4-(methylamino)pyrazolo[1,5-a]pyrazin-3-yl)oxy)-1H-imidazo[4,5-b]pyridin-2-yl)amino)-1-(methyl-d3)-5-(trifluoromethyl)pyridin-2(1H)-one]"
23,< 0.01 µM,"CN1CC(Oc2cc(Nc3nc4ncc(Oc5cnn6ccncc56)c(Cl)c4n3C)cc(C(F)(F)F)c2)C1 [Example I-218, 7-chloro-1-methyl-N-(3-((1-methylazetidin-3-yl)oxy)-5-(trifluoromethyl)phenyl)-6-(pyrazolo[1,5-a]pyrazin-3-yloxy)-1H-imidazo[4,5-b]pyridin-2-amine]"
24,0.01 to 0.05 µM,"CNc1nccn2ncc(Oc3cnc4nc(Nc5cc(-n6cnc(C)c6)cc(C(F)(F)F)c5)n(C)c4c3Cl)c12 [Example I-219, 7-chloro-1-methyl-N-(3-(4-methyl-1H-imidazol-1-yl)-5-(trifluoromethyl)phenyl)-6-((4-(methylamino)pyrazolo[1,5-a]pyrazin-3-yl)oxy)-1H-imidazo[4,5-b]pyridin-2-amine]"
25,0.01 to 0.05 µM,"CNc1nccn2ncc(Oc3cnc4nc(Nc5cc(N6CCN(C)CC6)cc(C(F)(F)F)c5)n(C)c4c3Cl)c12 [Example I-220, 7-chloro-1-methyl-6-((4-(methylamino)pyrazolo[1,5-a]pyrazin-3-yl)oxy)-N-(3-(4-methylpiperazin-1-yl)-5-(trifluoromethyl)phenyl)-1H-imidazo[4,5-b]pyridin-2-amine]"
26,0.01 to 0.05 µM,"CNc1nccn2ncc(Oc3cnc4nc(Nc5cc(C(F)(F)F)cn(C)c5=O)n(C)c4c3)c12 [Example I-221, 1-methyl-3-((1-methyl-6-((4-(methylamino)pyrazolo[1,5-a]pyrazin-3-yl)oxy)-1H-imidazo[4,5-b]pyridin-2-yl)amino)-5-(trifluoromethyl)pyridin-2(1H)-one]"
